Reference: patent publication US6620792B1, “Pharmaceutical compositions containing monosialoganglioside GM1 or derivative thereof suitable for the treatment of parkinson's disease” (Fidia S.p.A., priority 1992, dated 2003)

What was measured:
[1] = system: mesencephalic dopaminergic neurons; assay: TOPA neurotoxicity in mesencephalic dopaminergic neuron cultures, TH immunofluorescence; type: cell-based, rat
Experimental: Mesencephalic neuron cultures were prepared according to Dal Toso et al. (Dal Toso et al.: “Development and survival of neurons in dissociated fetal mesencephalic serum-free cell cultures: I. Effects of cell density and of an adult mammalian striatal-derived neuronotrophic factor (SDNF)”, J. Neurosci., 8 (3) 733-745, 1988) from the mesencephalic tegmentum of 14.5-15 days' rat embryos.
Neurons (0.75×10^6) were plated on a poly-L-ornithine substrate in 12-well (25 mm dia. each) clusters.
Cultures were used between the fourth and the sixth day without changing the medium. […]
(§1) 2-hour pretreatment before acute incubation with TOPA;
(§2) cotreatment only with LIGA 20 before acute incubation with TOPA;
(§3) pretreatment with/without cotreatment before (100 μM for 2 h) and/or during (100 μM for 24 h) prolonged incubation with TOPA. TOPA cytotoxicity was determined by evaluating cellular survival, and more precisely:
TH immunofluorescence (specific for tyrosine hydroxylase) in mesencephalic dopaminergic neurons, as described by Berger et al. (Berger B. et al.: “Long-term development of mesencephalic dopaminergic neurons of mouse embryos in dissociated primary cultures: morphological and histochemical characteristics”, Neurosci., 7, 193-205, 1982);
(§4) Cytotoxicity is expressed as per cent cellular survival.
The results of the two tests (in triplicate) were analysed statistically according to Duncan's test.

cerebellar granule cells = assay: TOPA neurotoxicity in cerebellar granule cell cultures, MTT assay; type: cell-based; details: for Neuronal survival (%): control cultures = 100%
Experimental: Granular cell cultures were obtained from 8-day rat cerebella and cultured (3×10^6 cells) on plates coated with poly-L-lysine substrate according to Skaper et al. (Skaper S. D. et al.: “Culture and use of primary and clonal neural cells”, Methods in Neurosciences, Ed. by P. M. Conn, Vol. 2, pp. 17-33, Academic Press, Orlando, 1990).
Twenty-four hours later, cytosine arabinoside (10 μM) was added to inhibit non-neuronal proliferation. Cerebellar granule cells were used 10-12 days later without changing the medium.
Cells were incubated with TOPA either for 40 minutes (100 μM acute exposure) or for 24 h (10 μM prolonged exposure).
Treatment with GM1, AGF2, AGF4 (100 μM) and LIGA 20 (1-30 μm) was carried out as follows:
as §1, §2, §3
MTT colorimetric assay of cerebellar neurons, as described by Mosmann (Mosmann T.: “Rapid colorimetric assay for cellular growth and survival: application to proliferation and cytotoxicity assays”, J. Immunol. Meth., 65, 55-63, 1983).
as §4
The results of the two tests (in triplicate) were analysed statistically according to Duncan's test. A brief description of same is reported below:
In FIG. 3 the dose-dependent protective effect of LIGA20 against TOPA-induced death of cultured cerebellar granule cells is represented. Cells were exposed concurrently to 100 μM TOPA and 1-30 μM LIGA20 or 200 μM GM1 in Locke's solution for 45 minutes (24° C.), washed and returned to their original medium. Survival was assessed 24 h later by the MTT method. Means±S.E.M. (n=9, 3 experiments). TOPA ( ), LIGA 20 ( ), GM1 ( ).
In vitro granule cells at the 11th day were incubated as indicated above. In the 40-minute exposure to TOPA, GM1 (100 μM) was used in 2-h pretreatment only. In the […] exposure to TOPA, GM1 (100 μM) was used either in 2-h pretreatment only or in 2-h pretreatment and in cotreatment with TOPA. The values are expressed with reference to the corresponding control cultures (=100%) and are an average (±S.D.) of two determinations, each being carried out in triplicate.

Question: For `NC(Cc1cc(O)c(O)cc1O)C(=O)O` (stereo not drawn) [TOPA, 6-hydroxy-dopa, reference compound], which “No. of TH+ cells” value ([1]; TOPA 10 μM alone for 24 h, average ± S.D., control 244 ± 20) is on record?
Answer: The value was 62 ± 8 (a).

Question: And the “Neuronal survival (%)” value (cerebellar granule cells; TOPA 10 μM alone, 24-h exposure)?
Answer: The value was 17.1 ± 1.4%.

Question: And the “Neuronal survival (%)” value (cerebellar granule cells; TOPA 100 μM alone, 40-minute exposure)?
Answer: Its value is 22 ± 2.0%.

Question: How did the “TH+ cells (% control)” value ([1]; 30 μM LIGA20 cotreatment with 100 μM TOPA for 45 minutes, counted 24 h later, mean ± S.E.M., no drug 5.2 ± 1.1) turn out when N-dichloroacetyl lyso GM1 [LIGA20] was run?
Answer: The value was 83.9 ± 4.2 % control.

Question: And the EC50 (cerebellar granule cells; cotreatment with 100 μM TOPA for 45 minutes, 1-30 μM LIGA20, MTT 24 h later (FIG. 3), read-out: ED50 of protection against the acute toxicity of TOPA)?
Answer: The EC50 was roughly 9 µM.

B1: BDNF: brain-derived neurotrophic factor (protein, UniProt P23560 19-247, looked up)
Neurotrophic factor BDNF …: APMKEANIRGQGGLAYPGVRTHGTLESVNGPKAGSRGLTSLADTFEHVIEELLDEDQKVRPNEENNKDADLYTSRVMLSSQVPLEPPLLFLLEEYKNYLDAANMSMRVRRHSDPARRGELSVCDSISEWVTAADKKTAVDMSGGTVTVLEKVPVSKGQLKQYFYETKCNPMGYTKEGCRGIDKRHWNSQCRTTQSYVRALTMDSKKRIGWRFIRIDTSCVCTLTIKRGR
Question: Which “neuroprotective activity alone against TOPA-induced neurotoxicity” value ([1]; BDNF alone at 1 ng/ml) does the source give for B1 here?
Answer: The value was “no neuroprotective activity of their own”.
